In patent US20120046273A1, “COMPOUNDS AND COMPOSITIONS FOR COGNITION-ENHANCEMENT, METHODS OF MAKING, AND METHODS OF TREATING” (MITHRIDION, INC., priority 2009, published 2012):
Counter-ions that a name gives are not always drawn. Like-named read-outs stand apart in the source and are kept apart here. Values belong to the compound of their own block, whether it stands above or below them.

Experiments:
[1] = Plasma concentration in rats, iontophoresis patch versus oral gavage; format: in vivo; settings: Long Evans Hooded, rat
Text: Two patches were made up, consisting (in order from the outer layer to the skin contacting surface, respectively): adhesive tape (Transpore, 27 mm wide, 3M), circular stainless steel electrodes (22 mm dia) with a central hole for a stainless steel machine screw to which the electrode wire was attached, and 2 layers of 3MM CHR filter paper (Cat #3030-861, Whatman International, Ltd).
The mid-dorsal area of a Long Evans Hooded rat (approximate weight, 320 grams), surgically prepared with a jugular vein catheter (Charles River), was shaved and the skin was then cleaned using an Electrode Prep Pad (Professional Disposables, Inc, Cat #B59800). […]
Blood (400 μl) was withdrawn from the catheters in each rat every 30 minutes, transferred to 1.5 ml centrifuge tubes containing heparin (15 units/tube), and the plasma was separated by centrifugation from the cellular components. The plasma samples were maintained at 4 deg C. until analyzed. […]
The ultra-filtrates were subjected to reverse-phase liquid chromatography using a 150×2.1 mm Agilent C8 reverse-phase column on a Shimadzu Prominence LC, eluting the MCD-386 with an isocratic flow of 2% acetonitrile+0.1% formic acid. The concentration of MCD-386 in the column effluent was measured using an Applied Biosystems API-3200 triple quadrupole mass spectrometer equipped with a Turbo V source (electrospray sample injection) system. […]

[2] = Brain/plasma concentration ratio after oral dosing to rats; settings: rat
[3] = Brain concentrations in rats after oral gavage; format: in vivo, rat; settings: rat, 10 mg/kg po, relative to MCD-386
Description: Long-Evans Hooded rats (Charles River: male, 250-350 g) were dosed with solutions of test compounds in PBS by oral gavage. At the desired time after dosing, the animals were anesthetized with isoflurane, and then euthanized by cervical dislocation. Blood was obtained by cardiac puncture, transferred to a 1.5 mL microcentrifuge tube containing 15U Heparin, and the plasma recovered after centrifugation. Brains were dissected, weighed, immediately chilled to 4° C., and homogenized using a PowerGen 125 homogenizer in five volumes of ice-cold 2% formic acid. Proteins were precipitated from plasma and brain homogenate with two and five volumes respectively of ice-cold 2% formic acid and clarified by centrifugation. The supernatant was ultra-filtered by centrifugation through a 3K MWCO spin column (Pall Life Sciences), following the manufacturer's instructions. The concentration of compound in the ultra-filtrate was subjected to reverse-phase liquid chromatography using a 150×2.1 mm Agilent C8 reverse-phase column on a Shimadzu Prominence LC, eluting the compounds with a gradient of 2% to 50% of acetonitrile+0.1% formic acid for compound MI-50,382, or an isocratic flow of 2% acetonitrile+0.1% formic acid for the rest of the compounds listed. The concentration of the compound in the column effluent was measured using an Applied Biosystems API-3200 triple quadrupole mass spectrometer equipped with an electrospray sample injection system. The counts of the characteristic parent and product ions of each test compound were converted to concentration units by comparison with a standard calibration curve.

[4] = Metabolites in serum and urine of dosed rats (LC-MS); format: in vivo; settings: rat serum/plasma or urine, oral dosing
Description: Oxadiazoles disclosed herein as well as other oxadiazoles were investigated to determine the formation of metabolites. Animals were dosed, blood taken, serum prepared, serum proteins precipitated and ultrafiltrates prepared as described in Example 6. In separate experiments, urine was collected from rats for 16-24 hours after dosing, using standard metabolic cages. The urine container and collected urine were maintained at 4° C. Urine was lyophilized, taken back into water. The ultrafiltrate was prepared by adding formic acid to a final concentration of 1% to the urine samples, then filtered through a 0.2 um nylon membrane. The ultrafiltrate was subjected to LC-MS analysis. Instead of measuring the product ions in Q3, manual Q1 scans of the liquid chromatograph were undertaken, seeking parent ions of potential metabolites of the compounds. The criteria for identifying metabolites were as follows: (1) the ion should be present in the sera or urines of dosed rats, but not in sera or urines from non-dosed rats (2) the ion should be identifiable as a metabolic derivative of the dosed compound (e.g. loss of a functional chemical moiety, addition of a hydroxyl group or a glucuronic acid moiety, etc). Metabolites were determined not to be present if no compound meeting the above criteria could be detected in serum or urine.

[5] = system: apomorphine induced climbing; test: Apomorphine induced climbing model of psychosis; format: in vivo, CD-I mice; settings: mice, sc
Description: As described in Costall et. al. European Journal of Pharmacology 1978, 50, 39. individual CD-I mice, 1-2 months old, were placed in a cylindrical wire mesh cage (13.2 cm high×13.2 cm diameter) constructed of steel wire 1 mm thick spaced at 1.2 cm^2. Cylinders were placed in a standard OptiMICE mouse cage (29×32×9×29 cm wide and 14 cm high) with adequate wood chip bedding provided. Observations of climbing (defined as 3 or more paws off the ground) were carried out every 5 minutes at a duration of 1 minute for 30 minutes. Animals were injected subcutaneously under isoflurane anesthesia with test compounds, reference compounds, which included clozapine, haloperidol, olanzapine and xanomeline, or PBS as a control. This was followed 5 minutes later by 2 mg/kg apomorphine hydrochloride. All drugs were dissolved in PBS or a mixture of (by volume) 96% PBS and 4% hydroxypropyl-beta-cyclodextrin, and dosed at a rate of 5 ml per kilogram of body weight. Following injections, animals were replaced in the mesh cages and observed for climbing (defined as 3 or more paws off the ground) every 5 minutes for a duration of 1 minute for 60 minutes after dosing.

[6] = Serum pharmacokinetics of immediate release capsules in human subjects; format: in vivo; settings: male; for Cmax / half-life: oral
Description: The hydrochloride salt of MCD-386 (“MCD-386 HCl”) was formulated with the following excipients and loaded into #3 hard gelatin capsules (5mg dose) or #2 hard gelatin capsules (0.2 mg dose).
(§1) A single 5 mg capsule or 5×0.2 mg capsules (1 mg total dose) were administered orally to healthy male volunteer human subjects with 125 ml of water. Six such subjects receiving the 5 mg dose, and a different 6 subjects received the 1 mg dose.
Venous blood samples were drawn at various intervals after dosing from each subject into standard tubes for bioanalytical and pharmacokinetic analysis. The blood was allowed to clot, and the serum separated, using common clinical laboratory techniques. Serum samples were stored at −20 deg C. until used for analysis.
MCD-386 HCl, which exists in serum principally as the protonated form of MCD-386, was assayed in clinical serum samples as follows. 200 μL aliquots of serum samples were spiked with 50.0 μL of diluent for subject samples and QC samples and 50 μL of the appropriate intermediate standard solution for standards. Twenty five microliters (25.0 μL) of working internal standard stock solution and 40.0 μL of 10 N sodium hydroxide was then added and the samples were vortex mixed. Three milliliters (3.00 mL) of ethyl acetate was added followed by 5 minutes of vigorous vortexing and centrifugation. The top organic layer was transferred to a clean tube, evaporated to dryness, and the sample was reconstituted with 100 μL of diluent (0.1% formic acid). A 10 μL aliquot of this reconstituted sample was injected into Phenomenex Synergy 4 μ POLAR-RP, 75×2.0 mm (P/N 00C-4336-B0) on a Waters Acuity UPLC LC system, and eluted using a gradient of from 12% to 90% acetonitrile containing 0.1% formic acid/0.1% formic acid in water. The eluant flow of the LC was injected by Turbo Ion Spray (positive ion) into a Sciex API 4000 (Applied Biosystems). The MS/MS transitions monitored were 181.1 m/z to 111.0 m/z for MCD-386 HCl and 186.1 m/z to 111.1 m/z for the internal standard, D5- MCD-386 HCl. The calibration curve was linear between 0.100 ng/mL and 50.0 ng/mL for MCD-386 HCl. The lower limit of quantitation (LLOQ) was 0.100 ng MCD-386 HCl per mL of serum. MCD-386 HCl concentrations are expressed as free base.
The bioanalytical results were analyzed using Win Nonlin software and common pharmacokinetic methods known to those skilled in the art.

[7] = Metabolites in human serum samples; format: in vivo; settings: 5mg dose cohort
Description: The bioanalytical method for the extraction of metabolites from serum samples entailed adding 450 uL of a 90% acetonitrile +0.1% formic acid solution to 50 uL of the serum samples. The samples were vortexed and centrifuged at 16,000×g at 4° C. for 10 minutes. The supernatants were transferred to 3K molecular weight cut-off (MWCO) spin filters (Pall, Nanosep, #82031-346). Samples were filtered by centrifugation at 13,000×g at 4° C. for 20 minutes. The filtrates were transferred to a 96-well plate and sealed for LC/MS/MS analysis. The system used for this analysis was a Shimadzu Prominence HPLC system. […] The autosampler was maintained at 4° C. Injection volumes for all samples and standards were 40 uL. MRM methods for two possible metabolites were made. An API 3200 triple-quadrupole mass spectrometer with a Turbo V source (Applied Biosystems) was used, following commonly used procedures which would be readily set up by a person skilled in the art of LC-MS/MS. The counts of the characteristic parent and product ions of the free base metabolites were converted to concentration units by comparison with a standard calibration curve.

[8] = system: healthy male volunteer human subjects; test: Cholinergic side effects of immediate release capsules in human subjects; format: in vivo
Description: as §1
Subjects were monitored, among other things, for typical signs of muscarinic cholinergic action, such as increased salivation, lachrimation and diaphoresis.

concentration at 30 minutes ([1]; other: iontophoresis patch (transdermal), 3.2 mg/kg, iontophoresis patch, dose 3.2 mg/kg): ~850 nM
concentration at 30 minutes ([1]; po, 10 mg/kg, oral gavage): 911 nM
PAMPA (? × 106) (PAMPA test): 0.05 ? × 106
Kp at 1 hour [2]: 0.07 to 0.13
Brain Cmax (10 mg/kg po) MCD-386 = 1.00 [3]: 1.00
Presence of metabolites (10 mg/kg po) [4]: Yes
Structure (SMILES): CCc1noc(C2CN=CNC2)n1 (stereo not drawn) [Compound 18, 3-ethyl-5-(1,4,5,6-tetrahydropyrimidin-5-yl)-1,2,4-oxadiazole]
activity in the apomorphine induced climbing model [5]: inactive

Cmax ([6]; 6 subjects receiving 1 mg of MCD-386 HCl): ≤ 8 ng/mL
Cmax ([6]; 6 subjects receiving 5 mg of MCD-386 HCl): 7.9 to 25.2 ng/mL
Tmax ([6]; oral immediate release capsules): 1 to 1.5 h
half-life ([6]; 0.2 mg, cohort of 6 subjects receiving 0.2 mg, +/- SD, read-out: mean half-life (converted)): 72 min
half-life ([6]; 1 mg, 1 mg cohort, +/- SD, read-out: half-life of the free base (converted)): 86.4 min
half-life ([6]; 5 mg, 5 mg cohort excluding one subject, read-out: mean half-life for the other 5 subjects (converted)): 86.4 min
half-life ([6]; 5 mg, 5 mg cohort, +/- SD, read-out: half-life of the free base (converted)): 103 min
half-life ([6]; 5 mg, 5 mg cohort, subject with the longest half-life, read-out: half-life in one subject (converted)): 176 min
main metabolite of the free base identified in serum samples [7]: five out of six subjects
Structure (SMILES): CCc1noc(C2CN=CNC2)n1 (stereo not drawn) [MCD-386 HCl, 5-(3-ethyl-1,2,4-oxadiazol-5-yl)-1,4,5,6-tetrahydropyrimidine]
observable cholinergic side effects ([8]; 1 mg total dose cohort, 6 subjects): none of the subjects
subjects with mild hypersalivation ([8]; 5 mg cohort): One
subjects with mild, transient diaphoresis ([8]; 5 mg cohort): Two
subjects with moderate diaphoresis ([8]; 5 mg cohort): two
signs of muscarinic cholinergic activity ([8]; 5 mg cohort, 6 subjects): four subjects showed signs of muscarinic cholinergic activity
